Data taken from US20070093520A1, “Method of treatment of diarrhea-predominant irritable bowel syndrome in a subject” (priority 2005, published 2007).

Test system: diarrhea-predominant IBS subjects
Experiment: 3007 Study: open-label 52-week safety study, adverse events and withdrawals
Settings: Overall

Cc1nccn1C[C@H]1CCc2c(c3cccc4c3n2CCC4)C1=O [cilansetron, (R)-(−)-4,5,6,8,9,10-hexahydro-10-[(2-methyl-1H-imidazol-1-yl)methyl]-11H-pyrido-[3,2,1-jk]-carbazol-11-one]
TEAE: Sexual Desire Disorders: 1 (<1%) n (%) | TEAE: Sick Sinus Syndrome: 1 (<1%) n (%) | TEAE: Sinus Arrhythmia: 1 (<1%) n (%) | TEAE: Sinus Congestion: 8 (1%) n (%) | TEAE: Sinus Headache: 3 (<1%) n (%) | TEAE: Sinusitis Acute NOS: 1 (<1%) n (%) | TEAE: Sinusitis NOS: 37 (7%) n (%) | TEAE: Site Specific Injuries NEC: 6 (1%) n (%) | TEAE: Skeletal and Cardiac Muscle Analyses: 27 (5%) n (%) | TEAE: Skin Disorder NOS: 1 (<1%) n (%) | TEAE: Skin Fungal Infection NOS: 1 (<1%) n (%) | TEAE: Skin Infection NOS: 1 (<1%) n (%) | TEAE: Skin Injuries and Mechanical Dermatoses: 3 (<1%) n (%) | TEAE: Skin Lesion NOS: 3 (<1%) n (%) | TEAE: Skin Neoplasms Benign: 1 (<1%) n (%) | TEAE: Skin Neoplasms Malignant and Unspecified (Excl Melanoma): 6 (1%) n (%) | TEAE: Skin Structures and Soft Tissue Infections: 3 (<1%) n (%) | TEAE: Skin Ulcer: 1 (<1%) n (%) | TEAE: Skin and Subcutaneous Tissue Disorders: 39 (7%) n (%) | TEAE: Skin and Subcutaneous Tissue Ulcerations: 1 (<1%) n (%) | TEAE: Sleep Apnoea Syndrome: 2 (<1%) n (%) | TEAE: Sleep Apnoeas: 2 (<1%) n (%) | TEAE: Social Circumstances: 1 (<1%) n (%) | TEAE: Soft Tissue Disorders NEC: 2 (<1%) n (%) | TEAE: Soft Tissue Neoplasms Benign NEC: 3 (<1%) n (%) | TEAE: Somnolence: 2 (<1%) n (%) | TEAE: Speech and Language Abnormalities: 1 (<1%) n (%) | TEAE: Spinal Cord and Nerve Root Disorders NEC: 1 (<1%) n (%) | TEAE: Spondylitic Myelopathy: 1 (<1%) n (%) | TEAE: Spondyloarthropathies: 1 (<1%) n (%) | TEAE: Spondylosis: 1 (<1%) n (%) | TEAE: Staphylococcal Infection NOS: 1 (<1%) n (%) | TEAE: Staphylococcal Infections: 1 (<1%) n (%) | TEAE: Status Epilepticus: 1 (<1%) n (%) | TEAE: Stomach Discomfort: 1 (<1%) n (%) | TEAE: Strabismus: 1 (<1%) n (%) | TEAE: Streptococcal Infection NOS: 1 (<1%) n (%) | TEAE: Streptococcal Infections: 8 (1%) n (%) | TEAE: Stress Fracture: 1 (<1%) n (%) | TEAE: Stress Incontinence: 1 (<1%) n (%) | TEAE: Stress Symptoms: 1 (<1%) n (%) | TEAE: Structural and Other Bile Duct Disorders: 1 (<1%) n (%) | TEAE: Sugar Intolerance (Excl Glucose Intolerance): 1 (<1%) n (%) | TEAE: Suicidal Ideation: 1 (<1%) n (%) | TEAE: Suicidal and Self-Injurious Behaviour: 1 (<1%) n (%) | TEAE: Supraventricular Arrhythmias: 4 (<1%) n (%) | TEAE: Supraventricular Tachycardia: 1 (<1%) n (%) | TEAE: Surgical and Medical Procedures: 2 (<1%) n (%) | TEAE: Sweating Increased: 2 (<1%) n (%) | TEAE: Swelling Face: 1 (<1%) n (%) | TEAE: Tachycardia NOS: 1 (<1%) n (%) | TEAE: Temporomandibular Joint Disorder NOS: 1 (<1%) n (%) | TEAE: Tenderness NOS: 1 (<1%) n (%) | TEAE: Tendon Disorders: 3 (<1%) n (%) | TEAE: Tendonitis: 2 (<1%) n (%) | TEAE: Tension Headaches: 1 (<1%) n (%) | TEAE: Thoracic Cage Fractures and Dislocations: 1 (<1%) n (%) | TEAE: Thrombocytopenia: 1 (<1%) n (%) | TEAE: Thrombocytopenias: 1 (<1%) n (%) | TEAE: Thrombophlebitis Superficial: 1 (<1%) n (%) | TEAE: Thyroid Disorders NEC: 1 (<1%) n (%) | TEAE: Thyroid Hypofunction Disorders: 2 (<1%) n (%) | TEAE: Thyroid Neoplasms: 1 (<1%) n (%) | TEAE: Thyroid Nodule: 1 (<1%) n (%) | TEAE: Tinea Cruris: 1 (<1%) n (%) | TEAE: Tinea Infections: 2 (<1%) n (%) | TEAE: Tinea Pedis: 1 (<1%) n (%) | TEAE: Tinnitus: 1 (<1%) n (%) | TEAE: Tissue Enzyme Analyses NEC: 3 (<1%) n (%) | TEAE: Tongue Coated: 1 (<1%) n (%) | TEAE: Tongue Signs and Symptoms: 1 (<1%) n (%) | TEAE: Tooth Abscess: 7 (1%) n (%) | TEAE: Tooth Disorder NOS: 1 (<1%) n (%) | TEAE: Tooth Impacted: 1 (<1%) n (%) | TEAE: Tooth Infection: 2 (<1%) n (%) | TEAE: Toothache: 3 (<1%) n (%) | TEAE: Total Fluid Volume Decreased: 2 (<1%) n (%) | TEAE: Total Number of Subjects with at Least One TEAE: 437 (82%) n (%) | TEAE: Transient Global Amnesia: 1 (<1%) n (%) | TEAE: Tremor: 2 (<1%) n (%) | TEAE: Tremor (Excl Congenital): 2 (<1%) n (%) | TEAE: Trigger Finger: 1 (<1%) n (%) | TEAE: Triglyceride Analyses: 10 (2%) n (%) | TEAE: Tympanic Membrane Disorder NOS: 1 (<1%) n (%) | TEAE: Tympanic Membrane Disorders (Excl Infections): 1 (<1%) n (%) | TEAE: Umbilical Hernia NOS: 1 (<1%) n (%) | TEAE: Umbilical Hernias: 1 (<1%) n (%) | TEAE: Upper Limb Fractures and Dislocations: 1 (<1%) n (%) | TEAE: Upper Respiratory Tract Infection NOS: 26 (5%) n (%) | TEAE: Upper Respiratory Tract Infections - Pathogen Class Unspecified: 61 (11%) n (%) | TEAE: Upper Respiratory Tract Signs and Symptoms: 7 (1%) n (%) | TEAE: Urinalysis NEC: 16 (3%) n (%) | TEAE: Urinary Abnormalities: 6 (1%) n (%) | TEAE: Urinary Frequency: 3 (<1%) n (%) | TEAE: Urinary Incontinence: 1 (<1%) n (%) | TEAE: Urinary Retention: 1 (<1%) n (%) | TEAE: Urinary Tract Infection NOS: 26 (5%) n (%) | TEAE: Urinary Tract Infections: 29 (5%) n (%) | TEAE: Urinary Tract Lithiasis (Excl Renal): 1 (<1%) n (%) | TEAE: Urinary Tract Signs and Symptoms NEC: 1 (<1%) n (%) | TEAE: Urine Abnormal NOS: 1 (<1%) n (%) | TEAE: Urine Analysis Abnormal NOS: 1 (<1%) n (%) | TEAE: Urine Bilirubin Increased: 1 (<1%) n (%) | TEAE: Urine Ketone Body Present: 5 (<1%) n (%) | TEAE: Urine Leukocyte Esterase Positive: 5 (<1%) n (%) | TEAE: Urobilin Urine Present: 1 (<1%) n (%) | TEAE: Urticaria NOS: 3 (<1%) n (%) | TEAE: Urticarias: 3 (<1%) n (%) | TEAE: Uterine Disorders NEC*: 2 (<1%) n (%) | TEAE: Uterine Fibroids*: 1 (<1%) n (%) | TEAE: Uterine Neoplasms Benign*: 1 (<1%) n (%) | TEAE: Uterine Neoplasms*: 2 (<1%) n (%) | TEAE: Uterine Polyp NOS*: 2 (<1%) n (%) | TEAE: Vaginal Cyst*: 1 (<1%) n (%) | TEAE: Vaginal Lesion*: 1 (<1%) n (%) | TEAE: Varicose Vein Ruptured: 2 (<1%) n (%) | TEAE: Varicose Veins Non-Site Specific: 2 (<1%) n (%) | TEAE: Vascular Auscultatory Investigations: 2 (<1%) n (%) | TEAE: Vascular Disorders: 21 (4%) n (%) | TEAE: Vascular Hypertensive Disorders NEC: 15 (3%) n (%) | TEAE: Vascular Hypotensive Disorders: 1 (<1%) n (%) | TEAE: Vascular Tests NEC (Incl Blood Pressure): 5 (<1%) n (%) | TEAE: Vasovagal Attack: 1 (<1%) n (%) | TEAE: Ventricular Arrhythmias and Cardiac Arrest: 2 (<1%) n (%) | TEAE: Ventricular Extrasystoles: 1 (<1%) n (%) | TEAE: Vertigo: 2 (<1%) n (%) | TEAE: Viral Infection NOS: 4 (<1%) n (%) | TEAE: Viral Infections NEC: 15 (3%) n (%) | TEAE: Visual Acuity Reduced: 1 (<1%) n (%) | TEAE: Vitreous Disorder NOS: 1 (<1%) n (%) | TEAE: Vomiting NOS: 18 (3%) n (%) | TEAE: Vulvovaginal Cysts and Neoplasms*: 1 (<1%) n (%) | TEAE: Vulvovaginal Dryness*: 2 (<1%) n (%) | TEAE: Vulvovaginal Signs and Symptoms*: 3 (<1%) n (%) | TEAE: Weight Decreased: 2 (<1%) n (%) | TEAE: Weight Increased: 6 (1%) n (%) | TEAE: Wheezing: 1 (<1%) n (%) | TEAE: White Blood Cell Analyses: 5 (<1%) n (%) | TEAE: White Blood Cell Count Decreased: 1 (<1%) n (%) | TEAE: White Blood Cells Urine Positive: 1 (<1%) n (%) | TEAE leading to permanent discontinuation: Abdominal Distension (N=536): 4 (<1%) n (%) | TEAE leading to permanent discontinuation: Abdominal Pain Aggravated (N=536): 1 (<1%) n (%) | TEAE leading to permanent discontinuation: Abdominal Pain Lower (N=536): 2 (<1%) n (%) | TEAE leading to permanent discontinuation: Abdominal Pain NOS (N=536): 11 (2%) n (%) | TEAE leading to permanent discontinuation: Abdominal Pain Upper (N=536): 4 (<1%) n (%) | TEAE leading to permanent discontinuation: Alanine Aminotransferase Increased (N=536): 1 (<1%) n (%) | TEAE leading to permanent discontinuation: Angina Pectoris (N=536): 1 (<1%) n (%) | TEAE leading to permanent discontinuation: Appendicitis (N=536): 1 (<1%) n (%) | TEAE leading to permanent discontinuation: Asthma Aggravated (N=536): 1 (<1%) n (%) | TEAE leading to permanent discontinuation: Asthma NOS (N=536): 1 (<1%) n (%) | TEAE leading to permanent discontinuation: Back Pain (N=536): 4 (<1%) n (%) | TEAE leading to permanent discontinuation: Bladder Prolapse (N=536): 1 (<1%) n (%) | TEAE leading to permanent discontinuation: Blood Bilirubin Increased (N=536): 1 (<1%) n (%) | TEAE leading to permanent discontinuation: Blood Pressure Increased (N=536): 1 (<1%) n (%) | TEAE leading to permanent discontinuation: Blood Urine Present (N=536): 1 (<1%) n (%) | TEAE leading to permanent discontinuation: Bone Neoplasm Malignant (N=536): 1 (<1%) n (%) | TEAE leading to permanent discontinuation: Cardiac Disorders (N=536): 1 (<1%) n (%) | TEAE leading to permanent discontinuation: Chest Discomfort (N=536): 1 (<1%) n (%) | TEAE leading to permanent discontinuation: Chest Pain (N=536): 1 (<1%) n (%) | TEAE leading to permanent discontinuation: Chest Wall Pain (N=536): 1 (<1%) n (%) | TEAE leading to permanent discontinuation: Colitis Ischaemic (N=536): 1 (<1%) n (%) | TEAE leading to permanent discontinuation: Constipation (N=536): 28 (5%) n (%) | TEAE leading to permanent discontinuation: Cough (N=536): 1 (<1%) n (%) | TEAE leading to permanent discontinuation: Dehydration (N=536): 1 (<1%) n (%) | TEAE leading to permanent discontinuation: Depression (N=536): 1 (<1%) n (%) | TEAE leading to permanent discontinuation: Diarrhoea Aggravated (N=536): 2 (<1%) n (%) | TEAE leading to permanent discontinuation: Diarrhoea Haemorrhagic (N=536): 1 (<1%) n (%) | TEAE leading to permanent discontinuation: Diarrhoea NOS (N=536): 6 (1%) n (%) | TEAE leading to permanent discontinuation: Dizziness (N=536): 2 (<1%) n (%)
